# Source: US8343475B2, “Small cationic antimicrobial peptides” (priority 2006, dated 2013)
# Residues, ends and D or L forms follow the SMILES beside them.
# How the values were obtained:
# [1] = test system: IL8 release by human PBMC; test: Chemokine induction in PBMC (capture ELISA); type: cell-based; settings: 20 or 100 μg/ml peptide, 24 hours (FIG. 14)
# Protocol: FIG. 14. Induction of IL8 release by 7.5×10^5 human PBMC in response to treatment with 20 or 100 μg/ml of different peptides for 24 hours.
# Venous blood (20 ml) from healthy volunteers was collected in Vacutainer® collection tubes containing sodium heparin as an anticoagulant (Becton Dickinson, Mississauga, ON) in accordance with UBC ethical approval and guidelines. Blood was diluted 1:1 with complete RPMI 1640 medium and separated by centrifugation over a Ficoll-Paque® Plus (Amersham Biosciences, Piscataway, N.J., USA) density gradient. White blood cells were isolated from the buffy coat, washed twice in RPMI 1640 complete medium, and the number of peripheral blood mononuclear cells (PBMC) was determined by trypan blue exclusion. PBMC (5×10^5) were seeded into 12-well tissue culture dishes (Falcon; Becton Dickinson) at 0.75 to 1×10^6 cells/ml at 37° C. in 5% CO2. The above conditions were chosen to mimic conditions for circulating blood monocytes entering tissues at the site of infection via extravasation.
# Following incubation of the cells under various treatment regimens, the tissue culture supernatants were centrifuged at 1000×g for 5 min, then at 10,000×g for 2 min to obtain cell-free samples. Supernatants were aliquoted and then stored at −20° C. prior to assay for various chemokines by capture ELISA (eBioscience and BioSource International Inc., CA, USA respectively)
# [2] = test system: CXCL1 (Gro-α) release by human PBMC; test: Chemokine induction in PBMC (capture ELISA); type: cell-based; settings: background (196) subtracted
# Outline: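 Human PBMC from healthy donors' heparinised blood (Ficoll), 7.5×10^5 cells treated with 20 or 100 μg/ml peptide for 24 h at 37° C, 5% CO2. Cell-free supernatants assayed for CXCL1 by capture ELISA.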
# S. aureus = test: Mouse model of aggressive bacterial infection (intraperitoneal); type: in vivo; settings: 1.6×10^10 CFU S. aureus IP; 8 mg/kg peptide IP four hours post infection
# Protocol: FIG. 10. Ability of new antimicrobial peptides HHC-10 and HHC-36 to protect mice against Staph aureus infections. Bacterial loads in the peritoneal lavage from individual mice after 24 hours of infection are shown (solid circles). Dead animals were assigned the highest colony forming unit (CFU) count obtained in the experiment. The solid line represents the arithmetic mean for each group.
# (§1) FIG. 18. […] Mice were treated with 1.6×10^10 CFU of S. aureus intraperitoneally. Four hours post infection they received a dose of 8 mg/kg peptide IP. The infection was allowed to progress for 4 or 24 hours after which mice were euthanaised and plate counts of staphylococci surviving in the peritoneum were determined. Bacterial loads in the peritoneal lavage from individual mice after 24 hours of infection are shown (solid circles). The solid line represents the arithmetic mean for each group.
# as §1, with “19.” for “18.”
# To further confirm this, a mouse model of aggressive bacterial infection, widely used to assess antibiotic efficacy, was utilized. Mice were treated with 1.6×10^10 CFU IP. Four hours post infection they received a dose of 4 mg/kg peptide IP. The infection was allowed to progress for 20 more hours, for a total infection time of 24 hours.
# These immunomodulatory activities led to protection against infections by S. aureus. Briefly a mouse model of aggressive bacterial infection, widely used to assess antibiotic efficacy, was utilized. […] The infection was allowed to progress for 4 or 24 hours after which mice were euthanaised and plate counts of staphylococci surviving in the peritoneum were determined.
# [3] = test system: cord blood mononuclear cells (CBMC); test: Adjuvant properties: cytokine/chemokine induction by peptides alone and with CpG oligonucleotides and polyphosphazene P6; type: cell-based, human; settings: peptide alone 20 ug/mL, background subtracted
# Text: It is well accepted that vaccine immunization is best achieved by co-administration of an adjuvant. The precise mechanism by which these adjuvants work has eluded immunologists but appears to work in part by upregulating elements of innate immunity that smooth the transition to adaptive (antigen-specific) immunity (Bendelac A and R. Medzhitov. 2002. Adjuvants of immunity: Harnessing innate immunity to promote adaptive immunity J. Exp. Med. 195:F19-F23). Within this concept there are several possible avenues by which adjuvants might work including the attraction of immune cells into the site at which a particular antigen is injected, through e.g., upregulation of chemokines, the appropriate activation of cells when they reach that site, which can be caused by local cell or tissue damage releasing endogenous adjuvants or through specific cell activation by the adjuvants, and the compartmentalization of immune responses to the site of immunization (the so-called “depot” effect). […] Therefore we studies the ability of our small host defence peptides to upregulate adjuvant responses in both human PBMC and cord blood mononuclear cells (CBMC) (representing the responses of blood cells from neonates), both alone (Table 10 and 11) and in combination with other proposed adjuvant agents that might work through other mechanisms such as CpG oligodeoxy ribonucleotides (TLR9 agionists that activate cells through interaction with TLR9 and fit into 3 different classes A=molecule 2336, B=10103 and C=2395), and polyphosphazene P6 (which induces a depot effect).
compound,measurement,setting,value
"CC[C@H](C)[C@H](N)C(=O)N[C@@H](Cc1c[nH]c2ccccc12)C(=O)N[C@H](C(=O)N[C@H](C(=O)N[C@@H](Cc1c[nH]c2ccccc12)C(=O)N[C@@H](CCCNC(=N)N)C(=O)N[C@@H](CCCNC(=N)N)C(N)=O)[C@@H](C)CC)C(C)C [HH18, IWVIWRR-NH2] (H-IWVIWRR-NH2; N-terminus assumed)",induction of IL8,[1],strongest abilities to induce this chemokine
same,Chemokine induction Gro-α,[2]; 20 μg/ml peptide,865 pg/mL
same,Chemokine induction Gro-α,[2]; 100 μg/ml peptide,2964 pg/mL
same,protection of mice from S. aureus infections (bacterial loads in peritoneal lavage),S. aureus,Protection of mice from S. aureus infections
same,Cytokines induced: Gro-α,[3],55 pg/mL
same,Cytokines induced: IL-6,[3],7 pg/mL
same,Cytokines induced: IL-8,[3],372 pg/mL
same,Cytokines induced: MCP-1,[3],54 pg/mL
same,Cytokines induced: MCP-3,[3],-24 pg/mL
same,Cytokines induced: TNF-α,[3],-4 pg/mL
